The test system of one series is CT26. Nature of the series: Antiproliferative activity against mouse CT26 cells measured after 72 hrs by CCK8 assay. The class given is functional. The note with it: Mus musculus, CT26. For orientation: Formazan colour is commonly taken as a measure of viable cells.
Series [1] is described as follows: Elimination rate constant in ICR mouse at 20 mg/kg, ip up to 24 hrs by LC-MS/MS analysis. The class given is ADME, organism-based. The note with it: in vivo.
The nature of series [2]: Tmax in ICR mouse at 20 mg/kg, po by LC-MS/MS analysis. The class given is ADME, organism-based. The note with it: in vivo.
A further series concerns MC-38. Description: Antitumour activity against mouse MC38 cells in C57BL/6 mouse assessed as tumour growth inhibition at 60 mg/kg, ip, bid measured after 9 days relative to control. The note with it: MC-38, ip, 216 h, time 9 day, read-out: TGI. Type of series: functional.
Series [3] is described as follows: AUC (0 to infinity) in ICR mouse at 20 mg/kg, po by LC-MS/MS analysis. The class given is ADME, organism-based. Set-up: time infinity, route oral, dose 20 mg/kg. The note with it: in vivo.
Series [4] in a line: Toxicity in C57BL/6 mouse assessed as loss in body weight at 30 to 60 mg/kg, ip, bid measured after 9 days. As to conditions: in vivo, 216 h, dose 30-60 mg/kg, time 9 day. Type of series: organism-based.
The nature of series [5]: AUC (0 to infinity) in ICR mouse at 5 mg/kg, iv up to 24 hrs by LC-MS/MS analysis. The class given is ADME, organism-based. Also on record: route intravenous, dose 5 mg/kg, time <=24. As to conditions: in vivo.
The test system of the next series is MC38. Nature of the series: Inhibition of HDAC in mouse MC38 cells assessed as increase in acetyl-histone H3 measured after 24 hrs by Western blot analysis. The class given is cell-based.
Series [6] addresses T1, Protein deacetylase HDAC6 (Homo sapiens, UniProt Q9UBN7).
T1 sequence (Q9UBN7 whole entry): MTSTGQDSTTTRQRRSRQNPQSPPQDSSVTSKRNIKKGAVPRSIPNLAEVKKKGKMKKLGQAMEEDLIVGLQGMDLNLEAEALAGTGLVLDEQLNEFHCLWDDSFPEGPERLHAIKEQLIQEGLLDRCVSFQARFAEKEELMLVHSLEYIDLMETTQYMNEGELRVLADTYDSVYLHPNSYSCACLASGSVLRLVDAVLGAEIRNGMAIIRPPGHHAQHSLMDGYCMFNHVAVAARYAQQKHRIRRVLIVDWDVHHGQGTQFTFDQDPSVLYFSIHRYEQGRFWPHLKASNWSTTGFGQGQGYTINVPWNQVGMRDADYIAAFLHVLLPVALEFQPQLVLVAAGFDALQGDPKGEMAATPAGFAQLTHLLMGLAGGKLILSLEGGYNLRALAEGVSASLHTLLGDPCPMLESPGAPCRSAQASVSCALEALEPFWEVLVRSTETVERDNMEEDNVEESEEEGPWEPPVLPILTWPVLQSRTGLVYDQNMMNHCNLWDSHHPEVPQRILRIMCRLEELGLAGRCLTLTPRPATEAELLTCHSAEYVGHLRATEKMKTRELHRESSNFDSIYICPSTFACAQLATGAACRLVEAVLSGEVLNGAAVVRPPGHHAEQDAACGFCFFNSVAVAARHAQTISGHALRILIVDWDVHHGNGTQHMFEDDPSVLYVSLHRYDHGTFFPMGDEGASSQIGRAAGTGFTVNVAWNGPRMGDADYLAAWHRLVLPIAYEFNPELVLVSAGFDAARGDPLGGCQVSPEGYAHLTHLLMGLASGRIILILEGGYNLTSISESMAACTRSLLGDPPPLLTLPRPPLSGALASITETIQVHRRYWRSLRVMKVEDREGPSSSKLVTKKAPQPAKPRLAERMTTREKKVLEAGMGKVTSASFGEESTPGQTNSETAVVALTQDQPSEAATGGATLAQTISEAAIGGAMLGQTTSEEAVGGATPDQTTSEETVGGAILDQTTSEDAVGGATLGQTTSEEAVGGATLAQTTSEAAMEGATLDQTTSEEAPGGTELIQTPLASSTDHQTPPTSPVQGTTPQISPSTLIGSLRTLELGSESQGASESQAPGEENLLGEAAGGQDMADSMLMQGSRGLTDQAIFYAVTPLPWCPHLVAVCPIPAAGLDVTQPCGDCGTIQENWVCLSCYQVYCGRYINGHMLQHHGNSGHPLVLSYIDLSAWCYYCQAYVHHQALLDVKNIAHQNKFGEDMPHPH
Description: Inhibition of HDAC6 (unknown origin) assessed as release of 7-amino-4-methylcoumarin incubated in room temperature for 15 min measured by Spectra max microtitre plate reader.

A short description of series [7]: MRT in ICR mouse at 5 mg/kg, iv up to 24 hrs by LC-MS/MS analysis. The class given is ADME, organism-based. As to conditions: in vivo.
A short description of series [8]: AUC (0 to infinity) in ICR mouse at 20 mg/kg, ip up to 24 hrs by LC-MS/MS analysis. Type of series: ADME, organism-based. Also on record: route intraperitoneal, dose 20 mg/kg, time <=24. The note with it: in vivo.
Series [9] is described as follows: Elimination rate constant in ICR mouse at 5 mg/kg, iv up to 24 hrs by LC-MS/MS analysis. Type of series: ADME, organism-based. As to conditions: in vivo.
The next series has as its target Adenosine receptor A2a (Homo sapiens, UniProt P29274). Nature of the series: Displacement of [3H]SCH58261 from adenosine A2A receptor membrane (unknown origin) measured after 60 mins by scintillation counting analysis. Type of series: cell membranes.
The nature of series [10]: Bioavailability in ICR mouse at 20 mg/kg up to 24 hrs by LC-MS/MS analysis. As to conditions: in vivo. The class given is ADME, organism-based.
Another series deals with T2, Histone deacetylase 8 (Homo sapiens, UniProt Q9BY41).
T2 sequence (Q9BY41 whole entry): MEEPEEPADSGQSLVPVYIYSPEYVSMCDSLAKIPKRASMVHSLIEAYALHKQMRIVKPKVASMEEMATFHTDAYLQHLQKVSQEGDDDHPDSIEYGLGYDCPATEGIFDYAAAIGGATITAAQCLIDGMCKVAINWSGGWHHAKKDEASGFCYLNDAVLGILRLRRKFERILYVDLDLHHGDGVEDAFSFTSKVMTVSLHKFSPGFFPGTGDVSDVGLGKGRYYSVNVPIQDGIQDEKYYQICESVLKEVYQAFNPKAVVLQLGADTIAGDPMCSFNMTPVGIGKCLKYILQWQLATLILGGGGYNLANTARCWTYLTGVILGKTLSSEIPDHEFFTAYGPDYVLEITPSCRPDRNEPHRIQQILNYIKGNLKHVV
Nature of the series: Inhibition of HDAC8 (unknown origin) assessed as release of 7-amino-4-methylcoumarin incubated in room temperature for 15 min measured by Spectra max microtitre plate reader.

Series [11] is described as follows: Cmax in ICR mouse at 5 mg/kg, iv up to 24 hrs by LC-MS/MS analysis. The class given is ADME, organism-based. Set-up: route intravenous, dose 5 mg/kg, time <=24. The note with it: in vivo.

These results are taken from ChEMBL document CHEMBL5030563, “Structure-Based Design of Dual-Acting Compounds Targeting Adenosine A2A Receptor and Histone Deacetylase as Novel Tumor Immunotherapeutic Agents” (J Med Chem, 2021).

Sequence of Adenosine receptor A2a (P29274 whole entry): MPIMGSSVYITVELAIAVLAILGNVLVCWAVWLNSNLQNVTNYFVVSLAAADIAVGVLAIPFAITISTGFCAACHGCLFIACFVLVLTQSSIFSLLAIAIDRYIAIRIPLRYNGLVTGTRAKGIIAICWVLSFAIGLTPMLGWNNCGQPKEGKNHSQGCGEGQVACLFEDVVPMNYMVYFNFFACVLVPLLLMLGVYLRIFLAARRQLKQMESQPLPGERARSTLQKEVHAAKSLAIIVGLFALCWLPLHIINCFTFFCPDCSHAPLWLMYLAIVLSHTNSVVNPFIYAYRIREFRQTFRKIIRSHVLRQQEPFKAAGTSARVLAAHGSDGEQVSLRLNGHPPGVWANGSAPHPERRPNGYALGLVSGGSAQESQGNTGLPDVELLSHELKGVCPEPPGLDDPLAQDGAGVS

Compound `Nc1ccccc1NC(=O)c1ccc(CCn2ncc3c2nc(N)n2nc(-c4ccco4)nc32)cc1` had a GI50 in the series on CT26 of 6.1 µM. Further, the figures for the k el at 24 h in [1] and in series [9] were 0.000138 s⁻¹ and 0.000678 s⁻¹, respectively. Further, the Tmax in [2] is 15 min. The inhibition in vivo at 60 mg/kg in the series on MC-38 stood at 95.3%. Besides, the figures for the AUC(0-inf) in series [3], in [5] and in [8] were 1810 ng·h/mL, 1470 ng·h/mL and 6630 ng·h/mL, respectively. Besides, the Activity entry is “Toxic” in [4] and “Dose-Dependent Effect” in the series with MC38. Also, the IC50 (in series [6]; on Histone deacetylase 8) was more than 10 µM throughout. Moreover, the MRT in [7] stood at 20 min. Besides, at Adenosine receptor A2a, the affinity corresponds to a Ki of 0.0022 µM. For the same compound, the bioavailability in [10] came out at 112%. In addition, in series [11], the Cmax is 3320 ng/mL.

What is called GI50 is the concentration at which growth is held to half of that of the control. Low readings indicate more potent growth inhibition, high ones less potent growth inhibition. In general, Tmax refers to the time at which the peak concentration occurs. For orientation: AUC(0-inf) means total exposure, with the tail of the curve extrapolated. A higher AUC(0-inf) goes with high exposure. The term IC50 denotes the concentration at which inhibition is half-maximal. Broadly, the MRT is a mean duration of stay, worked out from the concentration-time curve. The term Ki denotes a measure of affinity in units of concentration, obtained from inhibition or displacement. In general, Cmax refers to the peak of the concentration-time curve.
